{"source": "paper PMC11955804", "about": "“Histidine-rich enantiomeric peptide coacervates enhance antigen sequestration and presentation to T cells” (Chemical Science, 2025)", "key": {"[1]": {"test_system": "BMDCs overlaid with DOBW cells", "assay": "In vitro antigen presentation assay, MHC class II (BMDCs + DOBW hybridoma, IL-2 ELISA)", "conditions": "BMDCs pre-treated 1 h: Chlorpromazine 30 µM, Dynasore 50 µM, Wortmannin 10 µM, Methyl β-CD 2 mM; OVA-loaded coacervates; DOBW overlay 16 h", "quoted_text": "To test internalization mechanisms, we utilized in vitro antigen presentation assays (Fig. 4A). Here, bone marrow-derived dendritic cells (BMDCs) are treated with coacervates loaded with the model antigen ovalbumin (OVA). […] Secretion of IL-2 in response to peptide-MHC recognition is an indirect measure of coacervate uptake and can be quantified using ELISA (enzyme-linked immunosorbent assay) (Fig. 4A). […] We next used pharmacological inhibitors of endocytic mechanisms to explore mechanisms of cell entry (Fig. 4E). BMDCs were treated with inhibitors of clathrin-mediated endocytosis (chlorpromazine, CPZ),[58] dynamin-dependent endocytosis (dynasore, Dyn),[59] macropinocytosis (wortmannin, Wort),[60] cholesterol (methyl β-CD),[61] and IPA3 the regulatory domain of PAK1 (IPA-3)[62] for one h prior to antigen presentation assays.\nUptake of coacervates by BMDCs was measured using in vitro antigen presentation assays.\nBMDCs were plated in 96-well round-bottom plates (1×10^5 cells/well) and maintained at 4°C or\ntreated with 10 mM deoxy glucose and 10 mM sodium azide in PBS (ATP depletion) for 1 h prior\nto addition of OVA-loaded coacervates. Final OVA concentration was 1 g/mL for time-\ndependent measurements and 10 g/mL for comparison between enantiomers. Cells maintained at\n37°C and complete RPMI media served as controls. Soluble OVA and PBS treated cells were used as controls for antigen delivery. Following treatment (2 h, 4 h, 24 h, 48 h, or 72 h), BMDCs were\nwashed to remove extracellular coacervates and DOBW hybridoma cells (1:5, DC: DOBW) were\noverlaid for 16 h. The cells were then centrifuged at 300 × g for 5 min, and the supernatant was\ncollected for IL-2 quantitation by ELISA according to the manufacturer protocol (Biotechne,\n#DY402). The amount of IL-2 produced under each condition was measured.\nInhibition of coacervate uptake was measured by adding the inhibitors 1 h\nprior to coacervate treatment for 24 h followed by hybridoma overlay and IL-2 measurements."}, "DCs": {"test_system": "DCs", "assay": "DQ-OVA delivery to lysosomes (fluorescence microscopy)", "assay_type": "cell-based, mouse", "conditions": "DCs treated with DQ-OVA coacervates", "protocol": "page 13: Flow cytometry The transfected A549 cells were washed with FACS wash buffer (FWB; 1× PBS with 10% […] Cells were washed again with FWB and then resuspended in 100 µl of PBS with eBioscience™ Fixable Viability Dye eFluor™ 506 antibody. The staining was quenched with FWB following a 20 min incubation. The cells were centrifuged, washed 2× times with FWB, and resuspended in 100 µl FWB with CD55 (DAF) Antibody (anti-human; miltenyibiotec Cat#130-126-382). After 20 min, staining was quenched, cells washed twice and resuspended in 200 µl FWB for acquisition. Single-stained cells stained with eFluor™ 506, CD55 (DAF) Antibody, were used as compensation controls. Samples were acquired using an Agilent NovoCyte 3000 flow cytometer. Data were analyzed with FlowJo version 10. […] was quantified as the percentage CD55+ cells, considering untreated cells as the negative control and Lipofectamine treated ones as the positive control. Antigen delivery to lysosomes and inhibitor effects DC 2.4 cells were cultured in RPMI-1640 (Catalog number: 11875093) medium supplemented with 10% FBS, 100 U/mL penicillin, 100 μg/mL streptomycin, and 1 mM sodium pyruvate. Cells were plated in 8-well chamber slides (5000 cells in 200 μL of media) and incubated for 24 h prior to addition of DQ-OVA loaded coacervates for 2 h, 6 h, or 24 h (final DQ-OVA concentration was 2.5 μg/mL). Cells treated with PBS or soluble OVA served as controls. Cells were then washed and fixed using 4% Paraformaldehyde (PFA) for 15 min at RT and permeabilized with 0.1% Triton X-100 for 5 min prior to nuclear staining with Hoechst stain (Catalog number: 62249, Thermo Fischer Scientific; 10 μg/mL). Cells were imaged (60×) on Lionheart FX automated microscope (BioTek Instruments, Inc.) with controlled exposure S13 page 14: parameters across two channels: eGFP and DAPI."}, "[2]": {"test_system": "BMDCs overlaid with OVA1.3 hybridoma cells", "assay": "In vitro antigen presentation assay, MHC class I (BMDCs + OVA1.3 hybridoma, IL-2 ELISA)", "assay_type": "cell-based, mouse", "conditions": "inhibitor 30 min before coacervates, Bortezomib 10 nM, Brefeldin A 17.8 µM, Lactacystin 50 µM", "source_text": "parameters across two channels: eGFP and DAPI. Images were captured for each time point (2, 6, […]\ndeconvoluted using Gen 5 software overlaid to visualize localization. To test the effect of […]\nT cell proliferation and functional cytokine production […]\nat 1×10^8 cells/mL in EasySep Buffer."}, "[3]": {"assay": "Optical microscopy of coacervate formation (LLPS)", "assay_type": "physicochemical", "source_text": "NaCl) was used to study ionic strength effects. The absorbance was further converted to turbidity using methods previously described 1 and data was plotted as relative turbidity.\nOptical microscopy and dynamic light scattering (DLS)\nDroplets were visualized in 1×PBS using NCI Leica DMC4500 microscope in reflection mode with differential interference contrast. Images were captured with a DMC4500 camera under the control of Leica LAS X software (version 3.4.2). […]"}, "[4]": {"assay": "Dynamic light scattering (DLS) droplet size", "assay_type": "physicochemical", "conditions": "1 mM peptide, 1× PBS, pH 7.4; mean of 3 measurements with 14 scans each; identical for each pair of enantiomers", "protocol": "Optical microscopy and dynamic light scattering (DLS) […]\nCoacervate size was measured using 1 mM\npeptide solutions (1×PBS, pH 7.4) on a ZEN 3600 Zetasizer (Malvern Instruments, UK) using\nDLS-Zen 0040 specialized cuvettes. The results were reported as the means of three\nmeasurements, with 14 scans for each measurement. […]"}, "[5]": {"assay": "Critical concentration (Ccrit) of coacervate formation", "assay_type": "physicochemical", "conditions": "1× PBS, pH 7.4; enantiomeric variants identical", "source_text": "(§1) Peptide synthesis and purification\n(§2) The L- and D-enantiomers of (GHGLY)4, (GHGVY)4 and (GHGPY)4 peptides were purchased from GenScript and used without further modification. (GHGAY)4, (GHGFY)4, (GHGIY)4 and (GHGNY)4 were synthesized using standard Fmoc-SPPS chemistry on Rink Amide with Oxyma (Ethyl cyano(hydroxyimino) acetate) and N, N′-diisopropylcarbodiimide (DIC) as coupling agents on a Liberty Blue microwave-assisted synthesizer. Peptides were cleaved using a cocktail of trifluoroacetic acid (TFA), tri-isopropyl silane (TIS), and H2O (95:2.5:2.5) and extracted and washed in cold diethyl ether. The resulting pellet was dissolved in acetonitrile/water mixture (50:50) and frozen prior to lyophilization. Peptides were purified (~90%) using High Performance Liquid Chromatography (HPLC) on a Dionex Ultimate 3000 HPLC equipped with a diode-array detector on an Agilent Poroshell RP-C18 column (4.6 mm×150 mm), operating at a flow rate of 1 mL/min. Peaks corresponding to 220 nm were collected for MALDI -TOF mass analysis (Shimadzu MALDI-8030) using α-cyno-4-hydroxycinnamic acid matrix (Bruker Daltonics, MA).\n(§3) Peptide solutions (0.25–1.5 mM) were prepared in 1×PBS at pH 7.4. Aliquots (140 µL) were pipetted into a 96-well plate and absorbance at 600 nm was measured over 24 h using a Synergy HT plate reader (Biotek, USA) at RT or 37°C with or without agitation. The pH dependence of LLPS formation was assessed in 0.1 M potassium phosphate buffer (with 150 mM NaCl) at different pH values (5.8, 6.6, 7.4, 8.0) and 1 mM peptide concentration. Similarly, 0.1 M potassium phosphate buffer (pH 7.4) with varying salt concent rations (0, 150, 250, 500, 1000 mM […]\nFigure S10. Determination of Ccrit for (a) (GHGLY)4, (b) (GHGVY)4, (c) (GHGPY)4 and (d-f) their corresponding enantiomers (1 mM, 1× PBS, pH 7.4).\nTable S1. Measured Ccrit values for (GHGXY)4 peptides used in this study.\n(1 picture or pasted object on this page, not shown here)"}, "Turbidity assay of LLPS": {"assay": "Turbidity assay of LLPS", "assay_type": "physicochemical", "conditions": "1× PBS pH 7.4, absorbance at 600 nm over 24 h, plate reader", "source_text": "as §1\nas §2, with “Peaks corresponding to 220 nm were collected for MALDI -TOF mass analysis (Shimadzu MALDI-8030) using α-cyno-4-hydroxycinnamic acid matrix (Bruker Daltonics, MA).” left out\nas §3, with “concentration.” for “concentration. Similarly, 0.1 M potassium phosphate buffer (pH 7.4) with varying salt concent rations (0, 150, 250, 500, 1000 mM”\nNaCl) was used to study ionic strength effects. The absorbance was further converted to turbidity using methods previously described 1 and data was plotted as relative turbidity. […]\nDroplets were visualized in 1×PBS using NCI Leica DMC4500 microscope in reflection mode with differential interference contrast. […] Coacervate size was measured using 1 mM peptide solutions (1×PBS, pH 7.4) on a ZEN 3600 Zetasizer (Malvern Instruments, UK) using DLS-Zen 0040 specialized cuvettes. […]\nViscosity of the peptide solutions (1 mM or 2 mM) was tested using an ARES 2000ex rotational rheometer (TA Instruments, New Castle, DE). […] Viscosity was measured as a function"}, "[6]": {"assay": "Encapsulation efficiency measurement", "assay_type": "physicochemical", "conditions": "1 mM peptide, 1 µM eGFP in PBS; centrifuged 15,000 × g 10 min; fluorescence of supernatant (λex 395 nm, λem 510 nm)", "protocol": "Encapsulation efficiency measurements […]\npowders to a final peptide concentration of 1 mM. Cargo concentrations in the stock solutions […]\nnm and λem: 519 nm). For small molecule dyes, similar methods were used. The encapsulation efficiency was determined as reported previously 12.\nCellular uptake and antigen presentation assays […]\nto addition of OVA-loaded coacervates. Final OVA concentration was 1 µg/mL for time- […]\n37°C and complete RPMI media served as controls. Soluble OVA and PBS treated cells were used as controls for antigen delivery."}}}
{"molecule": "CN(C)CCCN1c2ccccc2Sc2ccc(Cl)cc21", "note": "[CPZ, chlorpromazine]", "values": [{"measurement": "effect of endocytosis inhibitor on uptake of coacervates (IL-2)", "setting": "[1]", "value": "did not significantly impact droplet uptake"}]}
{"molecule": "O=C(N/N=C/c1ccc(O)c(O)c1)c1cc2ccccc2cc1O", "note": "[Dyn, dynasore]", "values": [{"measurement": "effect of endocytosis inhibitor on uptake of coacervates (IL-2)", "setting": "[1]", "value": "did not significantly impact droplet uptake"}]}
{"molecule": "Cl.N", "note": "[NH4Cl, reference compound]", "values": [{"measurement": "DQ-OVA fluorescence intensity in DCs in the presence of inhibitor", "setting": "DCs", "value": "reduced"}]}
{"molecule": "CO/C1=C\\C(C)=C\\[C@@H](C)[C@@H](O)[C@@H](C)C/C(C)=C/C=C/[C@H](OC)[C@@H]([C@@H](C)[C@@H](O)[C@H](C)[C@@]2(O)C[C@@H](O)[C@H](C)[C@@H](C(C)C)O2)OC1=O", "note": "[bafilomycin, reference compound]", "values": [{"measurement": "DQ-OVA fluorescence intensity in DCs in the presence of inhibitor", "setting": "DCs", "value": "reduced"}]}
{"molecule": "CC(C)C[C@H](NC(=O)[C@H](Cc1ccccc1)NC(=O)c1cnccn1)B(O)O", "note": "[bortezomib]", "values": [{"measurement": "MHC class I presentation (IL-2 secretion) with MHC-I inhibitor", "setting": "[2]", "value": "significantly diminished"}]}
{"molecule": "C[C@H]1CCC/C=C/[C@@H]2C[C@H](O)C[C@H]2[C@H](O)/C=C/C(=O)O1", "note": "[brefeldin A]", "values": [{"measurement": "MHC class I presentation (IL-2 secretion) with MHC-I inhibitor", "setting": "[2]", "value": "significantly diminished"}]}
{"molecule": "CC(=O)N[C@@H](CSC(=O)[C@]1([C@@H](O)C(C)C)NC(=O)[C@H](C)[C@@H]1O)C(=O)O", "note": "[lactacystin]", "values": [{"measurement": "MHC class I presentation (IL-2 secretion) with MHC-I inhibitor", "setting": "[2]", "value": "significantly diminished"}]}
{"molecule": "COC[C@H]1OC(=O)c2coc3c2[C@@]1(C)C1=C(C3=O)[C@@H]2CCC(=O)[C@@]2(C)C[C@H]1OC(C)=O", "note": "[wortmannin]", "values": [{"measurement": "effect of endocytosis inhibitor on uptake of coacervates (IL-2)", "setting": "[1]", "value": "most significant effect on uptake of coacervates"}]}
{"molecule": "(GHGPY)4 [GP 20]", "values": [{"measurement": "coacervates at concentrations exceeding 250 mM NaCl", "setting": "[3]; optical micrographs, 0.1 M potassium phosphate buffer pH 7.4, > 250 mM NaCl", "value": "no coacervates were detected"}, {"measurement": "coacervate formation", "setting": "[3]; optical microscopy, 1× PBS, across multiple synthesis batches", "value": "Consistent coacervate formation"}, {"measurement": "droplet size (DLS)", "setting": "[4]", "value": "~0.2", "unit": "μm"}, {"measurement": "critical concentration (Ccrit) of coacervate formation", "setting": "[5]", "value": 1, "unit": "mM"}, {"measurement": "turbidity over time (A600)", "setting": "Turbidity assay of LLPS", "value": "no turbidity changes were detected with time"}, {"measurement": "eGFP loading efficiency", "setting": "[6]", "value": "~30", "unit": "%"}]}
{"molecule": "methyl β-CD", "values": [{"measurement": "effect of endocytosis inhibitor on uptake of coacervates (IL-2)", "setting": "[1]", "value": "did not significantly impact droplet uptake"}]}
